Consider 41 molecules from patent publication US6972319B1, “Pituitary adenylate cyclase activating peptide (PACAP)receptor 3 (R3) agonists and their pharmacological methods of use” (priority 1999, dated 2005).

For one experiment, the target named is T1, PACAP-R2 (Homo sapiens, UniProt P32241).
T1 construct: expressed in transfected cells; host or cells: CHO cells
T1 sequence (P32241 31-457): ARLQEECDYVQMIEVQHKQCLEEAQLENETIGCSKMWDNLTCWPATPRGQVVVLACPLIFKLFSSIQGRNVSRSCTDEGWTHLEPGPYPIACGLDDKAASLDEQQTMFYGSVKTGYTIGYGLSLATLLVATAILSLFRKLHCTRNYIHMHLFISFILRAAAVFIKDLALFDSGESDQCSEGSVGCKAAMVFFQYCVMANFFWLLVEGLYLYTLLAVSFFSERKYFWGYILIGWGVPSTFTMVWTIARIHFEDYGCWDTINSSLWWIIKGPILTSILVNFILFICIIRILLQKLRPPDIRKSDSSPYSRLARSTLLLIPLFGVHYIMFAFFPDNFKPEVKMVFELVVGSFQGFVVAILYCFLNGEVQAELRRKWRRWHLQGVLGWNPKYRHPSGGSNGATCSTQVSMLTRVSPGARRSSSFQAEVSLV
Briefly: Cyclic AMP SPA on CHO cells transfected with PACAP-R2. The following applies: cAMP SPA, concentration at which 50% of maximum PACAP27 activity is achieved, NA = no detectable activities, read-out: R2 EC50. It counts as cell-based. Summed up: (§1)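 Transfected CHO cells grown 24 h were exposed to peptide for 15 min at 37 C in Hepes-PBS-BSA containing 100 uM IBMX, 0.4 mg/ml soybean trypsin inhibitor and 0.5 mg/ml bacitracin. Cellular cAMP was measured by scintillation proximity assay. EC50 is the peptide concentration giving 50% of maximal PACAP27 activity.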

Experiment [1] deals with T2, PACAP-R3 (Homo sapiens, UniProt P41587).
T2 sequence (P41587 24-438): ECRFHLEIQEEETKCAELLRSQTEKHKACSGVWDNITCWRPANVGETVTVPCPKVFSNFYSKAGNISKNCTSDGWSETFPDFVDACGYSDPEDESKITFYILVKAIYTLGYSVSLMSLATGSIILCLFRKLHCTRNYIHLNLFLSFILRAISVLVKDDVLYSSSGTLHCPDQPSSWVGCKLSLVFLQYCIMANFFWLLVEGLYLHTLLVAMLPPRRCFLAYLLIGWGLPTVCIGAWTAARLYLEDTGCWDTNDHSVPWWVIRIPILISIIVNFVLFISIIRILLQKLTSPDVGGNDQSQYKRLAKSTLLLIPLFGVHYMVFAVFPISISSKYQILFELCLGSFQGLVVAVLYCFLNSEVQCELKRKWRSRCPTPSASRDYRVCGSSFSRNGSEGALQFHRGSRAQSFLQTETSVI
Briefly: Cyclic AMP SPA on CHO cells expressing PACAP R3. It counts as cell-based. On the set-up: expressed in transfected cells; host or cells: CHO cells (Geneticin selection). The following applies: for EC50: cAMP SPA, CHO cells transfected with PACAP-R3, concentration at which 50% of maximum PACAP27 activity is achieved, NA = no detectable activities, read-out: R3 EC50; for R3 Selectivity: ratio of EC50 at R2 versus EC50 at R3. Summed up:
as §1

Experiment [2] has as its target T3, PACAP-R3 (human, UniProt P41587 24-438).
T3 sequence (looked up): T2 sequence (P41587 24-438)
Briefly: cell-based or functional assay.

No end group written: not given here.

For “HSDAVFTDNYTRLRKQVAAKKYLQSILKK [Peptide R3P85]”, the EC50 (as a rule, the concentration needed to bring the measured effect to its halfway point) on PACAP-R2 worked out at 5 nM. On PACAP-R3 [1], the concentration giving a half-maximal response (EC50) was 0.18 nM and the “R3 Selectivity” value was 30.
For “HSDAVFTDNYTRLRKQMARKKYLNSIQNRI [rR3P187]”, in that order: over 130 nM, 1.6 nM and over 80.
For “HSDAVFTDNYTRLRKQVAAKKYLNSIKNKRY [Peptide R3P79]”, the EC50 on PACAP-R2 is 100 nM. The “R3 Selectivity” value on PACAP-R3 [1] was 200.
With “H-HSDAVFTDNYTRLRKQMAAKHYLNSIKNKRY [Peptide R3P74]”, the concentration giving a half-maximal response (EC50) at PACAP-R2 turned out to be 90 nM; on PACAP-R3 [1] it was 0.6 nM. Further, the “R3 Selectivity” value at PACAP-R3 [1] was determined as 150.
The like results for “H-HSDAVFTDNYTRLRKQMAVKKYLNSIKN [Peptide R3P42]” were, in that order, 0.3 nM, 0.03 nM and 10.
The like results for “HSDAVFTDNYTRLRKQMAAKKYLNSIKNER [Peptide R3P137]” were, in that order, 30 nM, 0.3 nM and 100.
As to “H-HSDGIFTDSYSRYRKQMAVKKYKAAVL-NH2 [PAC23]”, the concentration for a half-maximal effect (EC50) at PACAP-R2 amounted to 170 nM. Moreover, at PACAP-R3 [1], the 50% effective concentration (EC50) turned out to be 13 nM and the “R3 Selectivity” value turned out to be 13.
For HSDKIFTDSYSRYRKQMAVKKYLAAVL-NH2 [PAC4], in that order: 45 nM, 7 nM and 6.
Consider “HSDAVFTDNYTRLRKQMAAKKYLNSIPNKR [Peptide R3P126]”, for which the EC50 at PACAP-R2 came to 200 nM. On PACAP-R3 [1], the 50% effective concentration (EC50) was 1 nM and the “R3 Selectivity” value is on record as 200.
For the molecule “HSDAVFTDNYTRLRKQMAKKKYLNSIKNRI [rR3P176]”, the concentration for a half-maximal effect (EC50) is 300 nM at PACAP-R2 and 2 nM on PACAP-R3 [1]. Moreover, the “R3 Selectivity” value at PACAP-R3 [1] is 150.
For “HSDAVFTDNYTRLRKQLAVKKYLNSILN [Peptide R3P46]”, in that order: 0.4 nM, 0.06 nM and 7.
On to HSDGIFTDSYSRYRKQMAVKKYLKAVL-NH2 [PAC24], for which, at PACAP-R2, the 50% effective concentration (EC50) came to 0.3 nM. Also, on PACAP-R3 [1], the EC50 turned out to be 0.2 nM and the “R3 Selectivity” value stood at 1.5.
The like results for “HSDAVFTDNYTRLRKQMAAHKYLNSIKNKRY [Peptide R3P73]” were, in that order, 50 nM, 0.3 nM and 170.
The like results for “HSDAVFTDNYTRLRKQMAHKKYLNSIKNKR [Peptide R3P102]” were, in that order, 300 nM, 60 nM and 5.
The like results for HSDGIFTDSYSRYRKQMAVKKYLAKVL-NH2 [PAC25] were, in that order, 0.13 nM, 0.04 nM and 3.
For the molecule “HSDAVFTDNYTRLRKQMAAKKYLNSIKN [Peptide R3P49]”, at PACAP-R2, the EC50 was 8 nM. Besides, at PACAP-R3 [1], the EC50 turned out to be 0.27 nM and the “R3 Selectivity” value stood at 30.
Consider “HSDAVFTDNYTRLRKQVAAKKYLQSILKKR [Peptide R3P84]”, for which, on PACAP-R2, the EC50 was found to be 2.5 nM. Further, on PACAP-R3 [1], the EC50 stood at 0.06 nM and the “R3 Selectivity” value is given as 40.
For “HSDAVFTDNYTRLRKQMAAKKYLNSIKNKP [Peptide R3P165]”, in that order: 150 nM, 0.5 nM and 300.
The like results for “HSDAVFTDNYTRLRKQLAVKKYLNDIKNGGT [Peptide R3P29]” were, in that order, over 100 nM, 0.5 nM and over 200.
The like results for “H-HSDAVFTDNYTRLRKQMAGKKYLNSIRNRI [rR3P190]” were, in that order, 220 nM, 2.2 nM and 100.
“HSDAVFTDNYTRLRKQMAAKKYLNSIKNKF [Peptide R3P157]”: the EC50 at PACAP-R2 was 50 nM; on PACAP-R3 [1], 0.3 nM. Moreover, on PACAP-R3 [1], the “R3 Selectivity” value is 170.
The like results for “HSDAVFTDNYTRLRKQMAAKKYLNSIKKKR [Peptide R3P53]” were, in that order, 500 nM, 0.2 nM and 2500.
For the molecule “HSDAVFTDNYTRLRKQVAAKKYLQSILNKRY [Peptide R3P92]”, the EC50 at PACAP-R2 came out at 2 nM. For the same molecule, on PACAP-R3 [1], the half-maximal effective concentration (EC50) was found to be 0.02 nM and the “R3 Selectivity” value came to 100.
The like results for HSDGIFTDSYSRYRKQMAVEKYLAAVL-NH2 [PAC20] were, in that order, 20 nM, 0.7 nM and 30.
For the molecule HSDAVFTDNYTRLRKQMAAKKYLNSIKNKS [R3P167], the “R3 EC50, nM (cAMP SPA)” value with PACAP-R3 [2] is 1 nM.
Turning to HSDGIFTKSYSRYRKQMAVKKYLAAVL-NH2 [PAC8], in the experiment with PACAP-R3 [2], the “R3 EC50, nM (cAMP SPA)” value was 47 nM and the “R3 Selectivity” value came to 1 ratio.
The like results for HSDGIFTDKYSRYRKQMAVKKYLAAVL-NH2 [PAC9] were, in that order, 0.7 nM and 1 ratio.
For HSDAVFTDNYTRLRKQMAAKKYLNSIKNKP [R3P165], in that order: 0.5 nM and 300 ratio.
The like results for HSDGIFTDSYSRYEKQMAVKKYLAAVL-NH2 [PAC14] were, in that order, 1.6 nM and 70 ratio.
Take HKDGIFTDSYSRYRKQMAVKKYLAAVL-NH2 [PAC2]: the “R3 EC50, nM (cAMP SPA)” value with PACAP-R3 [2] was determined as 34 nM.
On to HSDKIFTDSYSRYRKQMAVKKYLAAVL-NH2 [PAC4], for which, in the experiment with PACAP-R3 [2], the “R3 EC50, nM (cAMP SPA)” value came out at 7 nM and the “R3 Selectivity” value came to 6 ratio.
For the molecule HSDAVFTDNYTRLRKQMAAKKYLNSIKNKY [R3P171], the “R3 EC50, nM (cAMP SPA)” value with PACAP-R3 [2] was determined as 0.4 nM.
In the case of HSDGIFTDSYKRYRKQMAVKKYLAAVL-NH2 [PAC11], in the experiment with PACAP-R3 [2], the “R3 EC50, nM (cAMP SPA)” value is 140 nM and the “R3 Selectivity” value was found to be 0.1 ratio.
The like results for HSDGIFTDSKSRYRKQMAVKKYLAAVL-NH2 [PAC10] were, in that order, 27 nM and 4 ratio.
For HSDGIFTDSYSEYRKQMAVKKYLAAVL-NH2 [PAC12], in that order: 3 nM and 50 ratio.
The like results for HSDGIFTDSYSRKRKQMAVKKYLAAVL-NH2 [PAC13] were, in that order, 0.5 nM and 6 ratio.
For the molecule HSDAVFTDNYTRLRKQMAAKKYLNSIKNKV [R3P169], in the experiment with PACAP-R3 [2], the “R3 EC50, nM (cAMP SPA)” value was 0.2 nM and the “R3 Selectivity” value was found to be 300 ratio.
On to HSDAVFTDNYTRLRKQVAAKKYLQSIKNKRYSWCEPGWCR [R3P172], for which, in the experiment with PACAP-R3 [2], the “R3 EC50, nM (cAMP SPA)” value worked out at 2.6 nM and the “R3 Selectivity” value amounted to 29 ratio.
The like results for HSDAVFTDNYTRLRKQMAAKKYLNSIKNKT [R3P168] were, in that order, 0.2 nM and 300 ratio.
Regarding HSDAVFTDDYTRLRKEVAAKKYLESIKDKRY [R3P173], in the experiment with PACAP-R3 [2], the “R3 EC50, nM (cAMP SPA)” value is 200 nM.
For ESDGIFTDSYSRYRKQMAVKKYLAAVL-NH2 [PAC1], in the experiment with PACAP-R3 [2], the “R3 EC50, nM (cAMP SPA)” value turned out to be 10 nM and the “R3 Selectivity” value was 97 ratio.
